Like-named read-outs stand apart in the source and are kept apart here.
Legend:
[1] = thermodynamic solubility in formulation vehicles (phosphate buffer pH 7.4 with excipients); format: physicochemical; conditions: thermodynamic from solid
Procedure: In view of developing a formulation suitable for parenteral administration, the quantitative solubility of Chemical Formula land the Chemical Formula 2 were determined in phosphate buffer pH 7.4, supplemented with solubility-enhancing excipients. The target concentration is 1-1.3 mg/mL.
Based on the qualitative solubility result determined for the PBS formulation vehicle containing Transcutol (Gattefossé, France) and TPGS (tocopherol polyethylene glycol succinate), the quantitative solubility of the compound of Chemical Formula 1 and the compound of Chemical Formula 2 was determined in those vehicles to assess the maximum solubility in those vehicles. The thermodynamic solubility was then determined in PBS buffer containing Transcutol (50% and 10%) and TPGS (20% and 10%) and also in the formulation vehicles containing PEG 400 (50%, with and without presence of 2% DMSO). Suspensions of the compound of Chemical Formula 1 and the compound of Chemical Formula 2 were prepared in the selected vehicles with a compound of Chemical Formula 1 concentration of about 3.5-5 mg/mL. After incubation for 24 hours at room temperature, the solids and liquid phases were separated. The concentration of API in solution was determined by HPLC analysis. The results can be found in FIG. 6.

[2] = PK parameters after bid (twice a day) administration; format: in vivo; conditions: for Cmax1 / Tmax1: after first daily dosing; for Cmax2 / Tmax2: after second daily dosing; for AUC / AUC(0-t): in vivo; for AUC: read-out: AUC(12-24 h)
Excerpt: FIG. 10 and Table 4 show the PK properties of the compound of Chemical Formula 2 administered twice a day (bid).
FIG. 11 and Table 5 show the PK properties of the compound of Chemical Formula 1 administered twice per day.

[3] = system: lung cancer cell line EBC-1; test: cancer cell proliferation inhibitory experiment (SRB); format: cell-based, human; conditions: EBC-1 cell line
Procedure: The following exemplary experimental protocol was performed to test the activity of the maleate salt compounds described herein.
An RPMI 1640 cell culture medium, fetal bovine serum (FBS) and trypsin were purchased from GIBCO Co., Ltd. (Grand Island, N.Y.), and sodium hydrogencarbonate, amphotericin B and gentamycin were used as signamic medical products. In addition, reagents such as sulforhodamine (SRB) B, Trisma Base, and trichloroacetic acid (TCA), which were reagents used in a cytotoxicity measurement experiment, were purchased from Sigma Chemical Co., Ltd. For MTS analysis, a Celltiter 96 Aqueous Non-Radioactive Cell Proliferation Assay product was purchased from Promega Co., Ltd. Further, a T-25 culture container used for cell culture, a 96-well plate and other disposable glass used for cell culture were obtained from Folkon (Lincoln Park, N.J.) products.
A drug used in the experiment was diluted as an experimental medium to a desired concentration in the test, and the final dimethylsulfoxide concentration was 0.5% or less.
Cancer cell lines used in the experiment were human-derived cancer cell lines, and a lung cancer cell line EBC-1. RPMI 1640 medium with 10% fetal bovine serum (FBS) was used and cultured in an incubator of 37° C. and 5% CO2 and subcultured once by 3 to 4 days.
Specifically, after the culture with the compound of the present disclosure was terminated, the culture solution was removed, and a cold TCA solution added to each well. The cells were left at 4° C. for 1 hour to be fixed. The TCA solution was removed, and the cells were dried at room temperature, incubated with a solution obtained by dissolving 0.4% SRB in a 1% acetic acid solution, left at room temperature for 30 minutes, and then stained. Extra SRB which was not bound to the cells was washed with a 1% acetic acid solution, and the SRB was eluted by adding a […] tris buffer solution (trisma base; unbuffered) of pH 10.3 to 10.5 to the stained cells.

[4] = long-term stability study, chemical purity by HPLC; format: physicochemical; conditions: up to 15 months, in words
Procedure: The physical and chemical stability study was performed on the compounds of Chemical Formula 2 and Chemical Formula 1 (for reference purposes). The long-term stability study was conducted at defined temperatures and relative humidity levels (25° C./60% relative humidity (RH) and 40° C./75% RH). At regular intervals, a solid sample was analyzed by XRPD, TGMS and HPLC.
The results of the chemical purity determination for the compounds of Chemical Formula 1 and Chemical Formula 2 after 1-, 3- and 15-month exposure to 25° C./60% RH and 40° C./75% RH is presented in FIGS. 4 and 5.

[5] = PK parameters in plasma after single administration; format: in vivo, Wistar rats; conditions: for AUC(0-inf) / AUC(0-t) / Cmax / Tmax: Wistar, rat, plasma

solubility at 24 h ([1]; PBS formulation vehicle with 10% TPGS, pH 7.4, aqueous with cosolvent or surfactant or cyclodextrin, PBS vehicle containing 10% TPGS, 24 hours at room temperature): ≥ 1000 µg/mL
solubility at 24 h ([1]; PBS formulation vehicle with 10% Transcutol, pH 7.4, aqueous with cosolvent or surfactant or cyclodextrin, PBS vehicle with only 10% Transcutol, 24 hours at room temperature): ~100 µg/mL
solubility at 24 h ([1]; PBS formulation vehicle with 20% TPGS, pH 7.4, aqueous with cosolvent or surfactant or cyclodextrin, PBS vehicle containing 20% TPGS, 24 hours at room temperature): ≥ 1000 µg/mL
solubility at 24 h ([1]; PBS formulation vehicle with 50% Transcutol, pH 7.4, aqueous with cosolvent or surfactant or cyclodextrin, PBS vehicle containing 50% Transcutol, 24 hours at room temperature): ≥ 1000 µg/mL
solubility at 24 h ([1]; formulation vehicles containing PEG 400, pH 7.4, aqueous with cosolvent or surfactant or cyclodextrin, vehicles containing PEG 400, 24 hours at room temperature): ~300 µg/mL
AUC(0-12 h)/Dose ([2]; 5 mg/kg IV (10 mg/kg/day)): 1070 kg·nM·h/mg
AUC(12-24 h)/Dose ([2]; 5 mg/kg IV (10 mg/kg/day)): 1480 kg·nM·h/mg
AUClast/Dose ([2]; 5 mg/kg IV (10 mg/kg/day)): 1410 kg·nM·h/mg
Cl ([2]; 5 mg/kg IV (10 mg/kg/day)): 0.000733 mg/h/nM/kg
Vss ([2]; 5 mg/kg IV (10 mg/kg/day)): 0.0076 mg/nM/kg
Vz ([2]; 5 mg/kg IV (10 mg/kg/day)): 0.00265 mg/nM/kg
AUC(0-12 h)/Dose ([2]; 5 mg/kg PO (10 mg/kg/day)): 487 kg·nM·h/mg
AUC(12-24 h)/Dose ([2]; 5 mg/kg PO (10 mg/kg/day)): 490 kg·nM·h/mg
AUClast/Dose ([2]; 5 mg/kg PO (10 mg/kg/day)): 488 kg·nM·h/mg
F ([2]; 5 mg/kg PO (10 mg/kg/day)): 34.6%
Cmax1 ([2]; 5 mg/kg PO (10 mg/kg/day)): 564 nM
Tmax1 ([2]; 5 mg/kg PO (10 mg/kg/day)): 3-4$ h
Cmax2 ([2]; 5 mg/kg PO (10 mg/kg/day)): 488 nM
Tmax2 ([2]; 5 mg/kg PO (10 mg/kg/day)): 13-14$ h
AUC(0-12 h)/Dose ([2]; 20 mg/kg PO (40 mg/kg/day)): 395 kg·nM·h/mg
AUC(12-24 h)/Dose ([2]; 20 mg/kg PO (40 mg/kg/day)): 313 kg·nM·h/mg
AUClast/Dose ([2]; 20 mg/kg PO (40 mg/kg/day)): 318 kg·nM·h/mg
F ([2]; 20 mg/kg PO (40 mg/kg/day)): 22.6%
Cmax1 ([2]; 20 mg/kg PO (40 mg/kg/day)): 821 nM
Tmax1 ([2]; 20 mg/kg PO (40 mg/kg/day)): 1-3$ h
Cmax2 ([2]; 20 mg/kg PO (40 mg/kg/day)): 1000 nM
Tmax2 ([2]; 20 mg/kg PO (40 mg/kg/day)): 12.083-16$ h
AUC ([2]; 5 mg/kg IV (10 mg/kg/day)): 7.38 µM·h
AUC ([2]; 5 mg/kg PO (10 mg/kg/day)): 2.45 µM·h
AUC ([2]; 20 mg/kg PO (40 mg/kg/day)): 6.26 µM·h
AUC(0-t) ([2]; iv, 5 mg/kg, 5 mg/kg IV (10 mg/kg/day), read-out: AUC(0-12 h)): 5.36 µM·h
AUC(0-t) ([2]; iv, 5 mg/kg, 5 mg/kg IV (10 mg/kg/day), read-out: AUClast): 14.1 µM·h
AUC(0-t) ([2]; po, 5 mg/kg, 5 mg/kg PO (10 mg/kg/day), read-out: AUC(0-12 h)): 2.44 µM·h
AUC(0-t) ([2]; po, 5 mg/kg, 5 mg/kg PO (10 mg/kg/day), read-out: AUClast): 4.88 µM·h
AUC(0-t) ([2]; po, 20 mg/kg, 20 mg/kg PO (40 mg/kg/day), read-out: AUC(0-12 h)): 7.9 µM·h
AUC(0-t) ([2]; po, 20 mg/kg, 20 mg/kg PO (40 mg/kg/day), read-out: AUClast): 12.7 µM·h
GI50 [3]: 8.17 nM
chemical degradation ([4]; 25° C./60% RH): partial chemical degradation
chemical degradation ([4]; 40° C./75% RH): more degradation
AUClast/Dose ([5]; 5 mg/kg IV): 1410 kg·nM·h/mg
AUC∞/Dose ([5]; 5 mg/kg IV): 1440 kg·nM·h/mg
Cl ([5]; 5 mg/kg IV): 0.000705 mg/h/nM/kg
Vss ([5]; 5 mg/kg IV): 0.00347 mg/nM/kg
Vz ([5]; 5 mg/kg IV): 0.00471 mg/nM/kg
AUClast/Dose ([5]; 5 mg/kg PO): 551 kg·nM·h/mg
AUC∞/Dose ([5]; 5 mg/kg PO): 562 kg·nM·h/mg
F ([5]; 5 mg/kg PO): 39.0%
AUClast/Dose ([5]; 20 mg/kg PO): 488 kg·nM·h/mg
AUC∞/Dose ([5]; 20 mg/kg PO): 504 kg·nM·h/mg
F ([5]; 20 mg/kg PO): 35.0%
AUC(0-inf) ([5]; 5 mg/kg IV): 7.2 µM·h
AUC(0-t) ([5]; 5 mg/kg IV): 7.06 µM·h
AUC(0-inf) ([5]; 5 mg/kg PO): 2.81 µM·h
AUC(0-t) ([5]; 5 mg/kg PO): 2.75 µM·h
Cmax ([5]; 5 mg/kg PO): 343 nM
Tmax ([5]; 5 mg/kg PO): 4 h
AUC(0-inf) ([5]; 20 mg/kg PO): 10.1 µM·h
AUC(0-t) ([5]; 20 mg/kg PO): 9.76 µM·h
Cmax ([5]; 20 mg/kg PO): 1080 nM
Tmax ([5]; 20 mg/kg PO): 4 h
Structure (SMILES): CN1CCN(Cc2ccc(-c3cnc(N4CCOC(Cn5nnc6ncc(-c7cnn(C)c7)nc65)C4)nc3)cc2)CC1 (stereo not drawn) [Chemical Formula 1]

Source: patent publication US11987582B2, “Maleate salts of triazolopyrazine derivatives, compositions, methods of use, and processes of manufacturing the same” (ABION Inc, priority 2021, dated 2024)
